Article PMC11672294, “The Antipsychotic Drug Aripiprazole Suppresses Colorectal Cancer by Targeting LAMP2a to Induce RNH1/miR‐99a/mTOR‐Mediated Autophagy and Apoptosis” (Advanced Science, 2024)
Counter-ions that a name gives are not always drawn. Like-named read-outs stand apart in the source and are kept apart here.

Test system: HT29
Conditions: 72 h, relative to DMSO, 10 µM
Text: To investigate the key signaling pathways and biological processes involved in CRC progression, we analyzed the National Center for Biotechnology Information Gene Expression Omnibus (GEO) dataset GSE115313, which included 42 CRC and paired normal tissues (Figure 1A). […] Next, we performed an Annexin V‐fluorescein isothiocyanate (FITC)/propidium iodide (PI) staining assay to determine the effect of aripiprazole on apoptosis in CRC cells. […] A) Principal component analysis of GEO dataset (GSE115313), which includes 42 CRC and paired normal tissues. B) Gene Ontology pathway analysis of the DEPs between CRC and paired normal tissues. […] D) Schematic diagram for identifying anticancer drugs amongst an US Food and Drug Administration‐approved small‐molecule library (616 compounds) using WST‐1 assay. E) HT29 cells were treated with the 616 drugs (10 µM) individually or with dimethyl sulfoxide for 72 h, followed by WST‐1 assay. […] J) Mice bearing HT29‐derived tumor xenografts were intragastrically administered with aripiprazole (10 or 20 mg kg^−1) once every 2 d, n = 6 mice/group. […] Bars, SD; ^* p < 0.05; ^** p < 0.01; ^*** p < 0.001; ns, no significant difference. The WST‐1 Cell Proliferation and Cytotoxicity Assay Kit (Beyotime Biotechnology, Shanghai, China) was used to measure cell viability, as described previously.^[ [10] ^] CRC cells were seeded into 96‐well plates and treated with different drug concentrations. Following that, WST‐1 was added to the plate and incubated with the cells for 2 h, at 37 °C. Absorbance at the wavelength of 450 nm was measured using an automated microplate spectrophotometer (BioTek Instruments, Winooski, VT, USA).

## CCCS(=O)(=O)Nc1ccc(F)c(C(=O)c2c[nH]c3ncc(-c4ccc(Cl)cc4)cc23)c1F [Vemurafenib (PLX4032, RG7204)]
  Relative cell viability (%): 36.92%

## CC[C@@H]([C@H](C)O)n1ncn(-c2ccc(N3CCN(c4ccc(OC[C@@H]5CO[C@@](Cn6cncn6)(c6ccc(F)cc6F)C5)cc4)CC3)cc2)c1=O [Posaconazole]
  Relative cell viability (%): 32.24%

## O=C1CCc2cc(OCCCCc3nnnn3C3CCCCC3)ccc2N1 [Cilostazol]
  Relative cell viability (%): 80.53%

## Cc1nnc(NS(=O)(=O)c2ccc(N)cc2)s1 [Sulfamethizole]
  Relative cell viability (%): 202.3%

## Cc1cnc(Nc2ccc(OCCN3CCCC3)cc2)nc1Nc1cccc(S(=O)(=O)NC(C)(C)C)c1 [TG101348 (SAR302503)]
  Relative cell viability (%): 16.99%

## CC1(COc2ccc3c(c2)ncn3-c2ccc3cccc(N4CCC(N)CC4)c3n2)COC1 [Crenolanib (CP-868596)]
  Relative cell viability (%): 11.17%

## O=C(O)Cc1ccccc1Nc1c(Cl)cccc1Cl [Diclofenac Sodium]
Relative cell viability (%)
  Relative cell viability (%): 111.9%

## CC12CC3CC(C)(C1)CC(N)(C3)C2 [Memantine HCl]
  Relative cell viability (%): 108.7%

## O=C(N/N=C/c1ccc([N+](=O)[O-])o1)c1ccc(O)cc1 [Nifuroxazide]
  Relative cell viability (%): 43.03%

## Cc1ccc(Nc2nccc(N(C)c3ccc4c(C)n(C)nc4c3)n2)cc1S(N)(=O)=O [Pazopanib]
  Relative cell viability (%): 46.12%

## CCCc1nn(C)c2c(=O)[nH]c(-c3cc(S(=O)(=O)N4CCN(C)CC4)ccc3OCC)nc12 [Sildenafil Mesylate]
  Relative cell viability (%): 91.88%

## O=P1(NCCCl)OCCCN1CCCl (stereo not drawn) [Ifosfamide]
  Relative cell viability (%): 92.99%

## COc1cc(NS(=O)(=O)c2ccc(N)cc2)nc(OC)n1 [Sulphadimethoxine]
  Relative cell viability (%): 86.06%

## C[C@@H]1CCN(C(=O)CC#N)C[C@@H]1N(C)c1ncnc2[nH]ccc12 [Tofacitinib (CP-690550) Citrate]
Relative cell viability (%)
  Relative cell viability (%): 115%

## CC[C@@H](C(N)=O)N1CCCC1=O [Levetiracetam]
  Relative cell viability (%): 78.97%

## O=c1ccc2ccccc2o1 [Coumarin]
  Relative cell viability (%): 71.21%

## COc1cc(Nc2ncc(F)c(Nc3ccc4c(n3)N(COP(=O)(O)O)C(=O)C(C)(C)O4)n2)cc(OC)c1OC [Fostamatinib (R788)]
Relative cell viability (%)
  Relative cell viability (%): 28.64%

## COCCCOc1cc(C[C@@H](C[C@H](N)[C@@H](O)C[C@H](C(=O)NCC(C)(C)C(N)=O)C(C)C)C(C)C)ccc1OC [Aliskiren Hemifumarate]
  Relative cell viability (%): 106.1%

## CCN(C)C(=O)Oc1cccc([C@H](C)N(C)C)c1 [Rivastigmine]
Relative cell viability (%)
  Relative cell viability (%): 88.03%

## CO[C@H]1/C=C/O[C@@]2(C)Oc3c(C)c(O)c4c(O)c(c5c(nc6cc(C)ccn65)c4c3C2=O)NC(=O)/C(C)=C\C=C\[C@H](C)[C@H](O)[C@@H](C)[C@@H](O)[C@@H](C)[C@H](OC(C)=O)[C@@H]1C [Rifaximin]
  Relative cell viability (%): 94.49%

## COc1ccc(NS(=O)(=O)c2ccc(N)cc2)nn1 [Sulfamethoxypyridazine]
  Relative cell viability (%): 72.12%

## O=C1c2ccccc2C(=O)C1c1ccccc1 [Phenindione]
  Relative cell viability (%): 136.8%

## CC1=C(CC(=O)O)c2cc(F)ccc2/C1=C\c1ccc([S+](C)[O-])cc1 (stereo not drawn) [Sulindac]
  Relative cell viability (%): 216.9%

## C[C@@H](NCCCc1cccc(C(F)(F)F)c1)c1cccc2ccccc12 [Cinacalcet HCl]
  Relative cell viability (%): 2.648%

## Nc1nc(Cl)nc2c1ncn2[C@@H]1O[C@H](CO)[C@@H](O)[C@@H]1F [Clofarabine]
  Relative cell viability (%): 43.15%

## Cc1cnc(NC(=O)C2=C(O)c3ccccc3S(=O)(=O)N2C)s1 [Meloxicam]
  Relative cell viability (%): 51.27%

## O=c1oc2c(O)c(O)cc3c(=O)oc4c(O)c(O)cc1c4c23 [Ellagic acid]
  Relative cell viability (%): 74.3%

## CC(C)(Oc1ccc(C2CC2(Cl)Cl)cc1)C(=O)O (stereo not drawn) [Ciprofibrate]
  Relative cell viability (%): 34.47%

## C[C@]12CCC(=O)C(O)=C1CC[C@@H]1[C@@H]2CC[C@]2(C)C(=O)CC[C@@H]12 [Formestane]
  Relative cell viability (%): 110.8%

## C[C@]12C=CC(=O)C=C1CC[C@H]1[C@@H]3C[C@@H](O)[C@](O)(C(=O)CO)[C@@]3(C)C[C@H](O)[C@@]12F [Triamcinolone]
  Relative cell viability (%): 171.8%

## Clc1ccc(C(Cn2ccnc2)OCc2ccsc2Cl)c(Cl)c1 (stereo not drawn) [Tioconazole]
  Relative cell viability (%): 135.7%

## Cc1cccc(N(C)C(=S)Oc2ccc3ccccc3c2)c1 [Tolnaftate]
  Relative cell viability (%): 126.1%

## COc1ccc2cccc(CCNC(C)=O)c2c1 [Agomelatine]
  Relative cell viability (%): 61.84%

## Nc1nnc(-c2cccc(Cl)c2Cl)c(N)n1 [Lamotrigine]
  Relative cell viability (%): 100%

## Clc1ccc(CCC(Cn2ccnc2)Sc2c(Cl)cccc2Cl)cc1 (stereo not drawn) [Butoconazole nitrate]
  Relative cell viability (%): 63.98%

## O=C(Nc1c(Cl)cncc1Cl)c1ccc(OC(F)F)c(OCC2CC2)c1 [Roflumilast]
  Relative cell viability (%): 121.4%

## CC(C)n1c(/C=C/[C@@H](O)C[C@@H](O)CC(=O)O)c(-c2ccc(F)cc2)c2ccccc21 (racemic) [Fluvastatin Sodium]
  Relative cell viability (%): 103.4%

## NC1=NCC2c3ccccc3Cc3ccccc3N12 (stereo not drawn) [Epinastine HCl]
  Relative cell viability (%): 78.48%

## COc1cc(/C=C/C(=O)N2CCN(CC(=O)N3CCCC3)CC2)cc(OC)c1OC [Cinepazide maleate]
  Relative cell viability (%): 86.89%

## N[C@@H](Cc1cc(I)c(Oc2ccc(O)c(I)c2)c(I)c1)C(=O)O [Liothyronine Sodium]
  Relative cell viability (%): 85.76%

## CC(C)(Oc1ccc(Cl)cc1)C(=O)O [Clofibric Acid]
  Relative cell viability (%): 90.303%

## CCOC(=O)C1=C(COCCN)NC(C)=C(C(=O)OC)C1c1ccccc1Cl (stereo not drawn) [Amlodipine]
Relative cell viability (%)
  Relative cell viability (%): 88.54%

## CCCN(CCC)C(=O)C1=Cc2ccc(-c3ccc(C(=O)N4CCCC4)cc3)cc2N=C(N)C1 [Motolimod (VTX-2337)]
  Relative cell viability (%): 31.62%

## C[C@]12CCC(=O)C=C1[C@@H]1C[C@@H]1[C@H]1[C@@H]3[C@@H]4C[C@@H]4[C@@]4(CCC(=O)O4)[C@@]3(C)CC[C@@H]12 [Drospirenone]
  Relative cell viability (%): 86.76%

## CN(C)c1ccc(C(=C2C=CC(=[N+](C)C)C=C2)c2ccc(N(C)C)cc2)cc1 [Crystal Violet]
  Relative cell viability (%): 4.52%

## N#C/C(=C1/SC[C@@H](c2ccc(Cl)cc2Cl)S1)n1ccnc1 [Luliconazole]
  Relative cell viability (%): 76.67%

## O=C(O)CCNC(=O)c1ccccc1 [Betamipron]
  Relative cell viability (%): 90.303%

## CC(C(=O)O)c1cccc(Oc2ccccc2)c1 (stereo not drawn) [Fenoprofen Calcium]
  Relative cell viability (%): 99.58%

## C[C@@H]1[C@H](O)[C@@H](C)/C=C/C=C/CC/C=C/C=C/C=C/C=C/[C@H](O[C@H]2O[C@@H](C)[C@H](O)[C@@H](N)[C@H]2O)C[C@@H]2O[C@](O)(C[C@@H](O)[C@H](O)CC[C@@H](O)C[C@@H](O)C[C@@H](O)CC(=O)O[C@H]1C)C[C@H](O)[C@H]2C(=O)O [Nystatin (Fungicidin)]
  Relative cell viability (%): 170.8%

## CCN(CC)CC#CCOC(=O)C(O)(c1ccccc1)C1CCCCC1 (stereo not drawn) [Oxybutynin]
  Relative cell viability (%): 58.9%

## COc1cc(/C=C/C(=O)CC(=O)/C=C/c2ccc(O)c(OC)c2)ccc1O [Curcumin]
  Relative cell viability (%): 46.19%

## CN(C)CCOC(C)(c1ccccc1)c1ccccn1 (stereo not drawn) [Doxylamine Succinate]
  Relative cell viability (%): 83.94%

## CC/C(=C(\c1ccccc1)c1ccc(OCCN(C)C)cc1)c1ccccc1 [Tamoxifen Citrate]
Relative cell viability (%)
  Relative cell viability (%): 47.42%

## Cc1nc(Nc2ncc(C(=O)Nc3c(C)cccc3Cl)s2)cc(N2CCN(CCO)CC2)n1 [Dasatinib Monohydrate]
  Relative cell viability (%): 20.09%

## CCCCCCCN(CC)CCCC(O)c1ccc(NS(C)(=O)=O)cc1 (stereo not drawn) [Ibutilide Fumarate]
  Relative cell viability (%): 112%

## Cc1c(-c2ccc(O)cc2)n(Cc2ccc(OCCN3CCCCCC3)cc2)c2ccc(O)cc12 [Bazedoxifene Acetate]
Relative cell viability (%)
  Relative cell viability (%): 88.41%

## CCN1CCN(C(=O)N[C@@H](C(=O)N[C@@H]2C(=O)N3[C@@H]2SC(C)(C)[C@@H]3C(=O)O)c2ccccc2)C(=O)C1=O [Piperacillin Sodium]
  Relative cell viability (%): 73.94%

## CC(S)C(=O)NCC(=O)O (stereo not drawn) [Tiopronin]
  Relative cell viability (%): 149.2%

## CC(C)Nc1cc(-c2c[nH]c(C(=O)N[C@H](CO)c3cccc(Cl)c3)c2)c(Cl)cn1 [Ulixertinib (BVD-523, VRT752271)]
  Relative cell viability (%): 30.34%

## Clc1ccc2c(c1)C(N1CCNCC1)=Nc1ccccc1O2 [Amoxapine]
  Relative cell viability (%): 73.94%

## COC(=O)Nc1nc2cc(C(=O)c3ccc(F)cc3)ccc2[nH]1 [Flubendazole]
  Relative cell viability (%): 16.95%

## CN(CCOc1ccc(CC2SC(=O)NC2=O)cc1)c1ccccn1 (stereo not drawn) [Rosiglitazone HCl]
  Relative cell viability (%): 114.3%

## CS(=O)(=O)c1ccc([C@@H](O)[C@@H](CF)NC(=O)C(Cl)Cl)cc1 [Florfenicol]
  Relative cell viability (%): 85.76%
